Reference: ChEMBL document CHEMBL1144542, “Design of endoperoxides with anti-Candida activity” (Bioorg Med Chem, 2007)

What was measured:
Candida albicans = assay: Growth inhibition of Candida albicans JRW#5; type: functional, organism-based
Erythrocyte = assay: Hemolytic activity in human erythrocytes at 1 mM; type: functional
CHO [1] = assay: Cytotoxicity against CHO cells at 1.0 mM after 3 days relative to control; type: cell-based, Cricetulus griseus; conditions: chinese hamster, 72 h, 1000 µM
CHO [2] = assay: Cytotoxicity against CHO cells at 0.1 mM after 3 days relative to control; type: cell-based, Cricetulus griseus; conditions: chinese hamster, 72 h, 100 µM

Row | SMILES | IC50 (Candida albicans) [µM] | Activity (Erythrocyte) [%] | Activity (CHO [1]) | Activity (CHO [2])
1 | C1C2CC3CC1CC(C[C@H]1OOC[C@H]4O[C@@H]14)(C2)C3 | 125 |  |  | 
2 | C1CCC([C@@]23COOC[C@@H]2O3)CC1 | 500 |  |  | 
3 | C[C@H]1OO[C@@H](COCc2ccccc2)[C@H]2O[C@H]21 | 63 |  |  | 
4 | C1=C[C@@H](C23CC4CC(CC(C4)C2)C3)OOC1 | 31 | 100 |  | 
5 | C1C2CC3CC1CC(C[C@H]1OOC[C@@H]4O[C@@H]41)(C2)C3 | 125 |  |  | 
6 | C1=C[C@@H](COCc2ccccc2)OO[C@H]1COCc1ccccc1 | 16 | 2 | Active | 
7 | C1C2CC3CC1CC([C@@H]1OO[C@H](C45CC6CC(CC(C6)C4)C5)[C@H]4O[C@H]41)(C2)C3 | > 1000 |  |  | 
8 | C1=C(C2CCCCC2)COOC1 | 63 |  |  | 
9 | C1CC2OOC1C1OC21 (stereo not drawn) | 16 | 0 | Active | Active
10 | CCCCCCC1=CCOOC1 | 250 | 61 |  | 
11 | CCCCCC[C@@]12COOC[C@@H]1O2 | 500 | 31 |  | 
12 | CCCCCCC[C@H]1OOC[C@@H]2O[C@@]21CCCCCC | > 1000 |  |  | 
13 | C[C@@H]1C=C[C@H](CO)OO1 | 16 | 0 |  | Active
14 | CCCCCCC[C@@H]1C=CCOO1 | 63 | 60 |  | 
15 | CCCCCCC[C@H]1OOC[C@H]2O[C@@]12CCCCCC | > 1000 |  |  | 
16 | C[C@@H]1C=C[C@H](COCc2ccccc2)OO1 | 250 |  |  | 
17 | CCCCCCC[C@H]1OOCC=C1CCCCCC | 250 |  |  | 
18 | C[C@H]1OO[C@@H](COC(=O)C23CC4CC(CC(C4)C2)C3)[C@H]2O[C@H]21 | 125 |  |  | 
19 | CCCCCCC[C@H]1OOC[C@H]2O[C@@H]12 | 63 |  |  | 
20 | C[C@@H]1C=C[C@H](COC(=O)C23CC4CC(CC(C4)C2)C3)OO1 | 125 |  |  | 
21 | C[C@H]1OO[C@@H](COC(=O)C23CC4CC(CC(C4)C2)C3)[C@@H]2O[C@@H]21 | 250 |  |  | 
22 | C[C@@H]1C=C[C@H](CCCO)OO1 | 250 |  |  | 
23 | C[C@@H]1C=C[C@H](COC(=O)CC23CC4CC(CC(C4)C2)C3)OO1 | 125 |  |  | 
24 | C[C@H]1OO[C@@H](COC(=O)CC23CC4CC(CC(C4)C2)C3)[C@@H]2O[C@@H]21 | > 1000 |  |  | 

Row | SMILES | IC50 (Candida albicans) [µM] | Activity (Erythrocyte) [%] | Activity (CHO [1]) | Activity (CHO [2])
25 | c1ccc(COC[C@@H]2OO[C@H](COCc3ccccc3)[C@H]3O[C@H]32)cc1 | 250 |  |  | 
26 | c1ccc(COC[C@@H]2OO[C@H](COCc3ccccc3)[C@@H]3O[C@@H]32)cc1 | 63 | 1 |  | Active
27 | CCCCCCC[C@H]1OO[C@@H](CCC)[C@H]2O[C@H]21 | 500 | 25 |  | 
28 | CCCCCCC[C@@H]1C=C[C@H](CCC)OO1 | 250 | 86 |  | 
29 | C1=C(C23CC4CC(CC(C4)C2)C3)COOC1 | 63 |  |  | 
30 | C[C@H]1OO[C@@H](CCCO)[C@@H]2O[C@@H]21 | > 1000 |  |  | 
31 | C[C@H]1OO[C@@H](CO)[C@@H]2O[C@@H]21 | > 1000 |  |  | 
32 | C1=C[C@@H](CC23CC4CC(CC(C4)C2)C3)OOC1 | 125 |  |  | 
33 | C1=C[C@H](C23CC4CC(CC(C4)C2)C3)OO[C@@H]1C12CC3CC(CC(C3)C1)C2 | > 1000 |  |  | 
34 | CCCCCCC[C@H]1OOC[C@@H]2O[C@@H]21 | 63 | 33 |  | 
35 | C1C2CC3CC1CC([C@@]14COOC[C@@H]1O4)(C2)C3 | 125 |  |  | 
36 | C[C@H]1OO[C@@H](COC(=O)CC23CC4CC(CC(Br)(C4)C2)C3)[C@H]2O[C@H]21 | > 1000 |  |  | 
37 | C[C@@H]1C=C[C@H](COC(=O)CC23CC4CC(CC(Br)(C4)C2)C3)OO1 | 250 |  |  | 
38 | C[C@H]1OO[C@@H](COC(=O)CC23CC4CC(CC(Br)(C4)C2)C3)[C@@H]2O[C@@H]21 | > 1000 |  |  | 
39 | C1C2CC3CC1CC([C@H]1OOC[C@@H]4O[C@@H]41)(C2)C3 | 31 | 41 |  | 
40 | C[C@H]1OO[C@@H](COC(=O)CC23CC4CC(CC(C4)C2)C3)[C@H]2O[C@H]21 | 250 |  |  | 
41 | c1ccc([C@H]2OO[C@@H](c3ccccc3)[C@@H]3O[C@@H]32)cc1 | 500 |  |  | 
42 | C1CCC(C[C@H]2OOC[C@@H]3O[C@@H]32)CC1 | 125 |  |  | 
43 | CCCCCCC[C@H]1OO[C@@H](CCC)[C@@H]2O[C@@H]21 | 500 | 45 |  | 
44 | C1=C[C@@H](CC2CCCCC2)OOC1 | 125 |  |  | 
45 | C1CCC(C[C@H]2OOC[C@H]3O[C@@H]23)CC1 | 125 |  |  | 
46 | C1=C[C@H](c2ccccc2)OO[C@@H]1c1ccccc1 | 31 |  | Active | Active
47 | C[C@H]1OO[C@@H](COCc2ccccc2)[C@@H]2O[C@@H]21 (single isomer, unassigned) | 125 |  |  | 
48 | C[C@@H]1[C@H](O)[C@@H](C)/C=C/C=C/C=C/C=C/C=C/C=C/C=C/[C@H](O[C@@H]2O[C@H](C)[C@@H](O)[C@H](N)[C@@H]2O)C[C@@H]2O[C@](O)(C[C@@H](O)C[C@@H](O)[C@H](O)CC[C@@H](O)C[C@@H](O)CC(=O)O[C@H]1C)C[C@H](O)[C@H]2C(=O)O [AMPHOTERICIN B] | < 0.5 |  |  | 
